How the values were obtained:
Format in all cases: in vivo
[1] = system: pigweed (Amaranthus retroflexus); experiment: Test A pre-/postemergence: pigweed
Outline: (§1)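 Compounds, formulated with surfactant in non-phytotoxic solvent, were applied as a directed soil spray preemergence and as postemergence sprays to 2–10 cm, one- to two-leaf seedlings grown in loam soil blended with sand; visual injury, 0–100, assessed ~10 days post-treatment against untreated controls.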

[2] = system: crabgrass, large (large crabgrass, Digitaria sanguinalis); experiment: Test A pre-/postemergence: crabgrass, large
Outline: as §1

[3] = system: ryegrass, Italian (Italian ryegrass, Lolium multiflorum); experiment: Test C pre-/postemergence: ryegrass, Italian
Outline: (§2)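 Preemergence on seeds in loam/sand, postemergence on 2–18 cm (1–4-leaf) plants in peat-based medium; compounds in non-phytotoxic solvent with surfactant. After 13–15 days in greenhouse, visual rating versus controls, 0 (no effect) to 100 (complete control).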

[4] = system: lambsquarters (Chenopodium album); experiment: Test C pre-/postemergence: lambsquarters
Outline: as §2

[5] = system: barnyardgrass (Echinochloa crus-galli); experiment: Test A pre-/postemergence: barnyardgrass
Outline: as §1

[6] = system: nutsedge, yellow (yellow nutsedge, Cyperus esculentus); experiment: Test C pre-/postemergence: nutsedge, yellow
Outline: as §2

[7] = system: wheat (Triticum aestivum); experiment: Test A pre-/postemergence: wheat
Outline: as §1

[8] = system: corn (Zea mays); experiment: Test A pre-/postemergence: corn
Outline: as §1

[9] = system: foxtail, giant (giant foxtail, Setaria faberii); experiment: Test C pre-/postemergence: foxtail, giant
Outline: as §2

[10] = system: soybean (Glycine max); experiment: Test C pre-/postemergence: soybean
Outline: as §2

[11] = system: winter wheat (Triticum aestivum); experiment: Test C pre-/postemergence: winter wheat
Outline: as §2

[12] = Postemergence, 125 g ai/ha, 0 to 100 scale, 0 is no effect, 100 is complete control
[13] = Postemergence, 500 g ai/ha, visual rating on 0 to 100 scale (0 no effect, 100 complete control), approximately ten days
[14] = Preemergence, 125 g ai/ha, 0 to 100 scale where 0 is no effect and 100 is complete control
[15] = Preemergence, 500 g ai/ha, 0 to 100 scale (0 no effect, 100 complete control)
[16] = Postemergence, 31 g ai/ha, scale 0 to 100 (0 no effect, 100 complete control)
[17] = Postemergence, 62 g ai/ha, scale 0 to 100 (0 no effect, 100 complete control)
[18] = Postemergence, 125 g ai/ha, scale 0 to 100, 0 no effect, 100 complete control
[19] = Postemergence, 250 g ai/ha, scale 0 to 100
[20] = Preemergence, 31 g ai/ha, scale of 0 to 100, 0 is no effect, 100 is complete control
[21] = Preemergence, 62 g ai/ha, scale of 0 to 100, 0 is no effect, 100 is complete control
[22] = Preemergence, 125 g ai/ha, scale 0 to 100, 0 no effect, 100 complete control
[23] = Preemergence, 250 g ai/ha, scale 0 to 100, 0 no effect, 100 complete control
[24] = Postemergence, 500 g ai/ha, 0 to 100 scale, 0 is no effect, 100 is complete control
[25] = Preemergence, 31 g ai/ha, scale 0 (no effect) to 100 (complete control)

CCCc1nn(-c2ccc(F)cc2)nc1Cc1ccnc(C(F)(F)F)c1 [Compound 153]
Plant response rating, Pigweed [1, 12]: 100
Pigweed plant response rating [1, 13]: 100
Plant response rating, Pigweed [1, 14]: 100
Plant response rating, Pigweed [1, 15]: 100
Plant response rating, Crabgrass, Large [2, 12]: 100
Crabgrass, Large plant response rating [2, 13]: 100
Plant response rating, Crabgrass, Large [2, 14]: 100
Plant response rating, Crabgrass, Large [2, 15]: 100
Plant response rating, Ryegrass, Italian [3, 16]: 30
Plant response rating, Ryegrass, Italian [3, 17]: 35
Plant response rating, Ryegrass, Italian [3, 18]: 60
Plant response rating, Ryegrass, Italian [3, 19]: 65
Plant response rating, Ryegrass, Italian [3, 20]: 60
Plant response rating, Ryegrass, Italian [3, 21]: 90
Plant response rating, Ryegrass, Italian [3, 22]: 90
Plant response rating, Ryegrass, Italian [3, 23]: 90
Plant response rating, Lambsquarters [4, 16]: 95
Plant response rating, Lambsquarters [4, 17]: 95
Plant response rating, Lambsquarters [4, 18]: 95
Plant response rating, Lambsquarters [4, 19]: 95
Plant response rating, Lambsquarters [4, 20]: 95
Plant response rating, Lambsquarters [4, 21]: 100
Plant response rating, Lambsquarters [4, 22]: 100
Plant response rating, Lambsquarters [4, 23]: 100
Plant response rating, Barnyardgrass [5, 12]: 90
Barnyardgrass plant response rating [5, 13]: 90
Plant response rating, Barnyardgrass [5, 14]: 100
Plant response rating, Barnyardgrass [5, 15]: 100
Plant response rating, Nutsedge, Yellow [6, 16]: 10
Plant response rating, Nutsedge, Yellow [6, 17]: 10
Plant response rating, Nutsedge, Yellow [6, 18]: 15
Plant response rating, Nutsedge, Yellow [6, 19]: 15
Plant response rating, Nutsedge, Yellow [6, 20]: 0
Plant response rating, Nutsedge, Yellow [6, 21]: 0
Plant response rating, Nutsedge, Yellow [6, 22]: 5
Plant response rating, Wheat [7, 12]: 60
Wheat plant response rating [7, 13]: 70
Plant response rating, Wheat [7, 14]: 50
Plant response rating, Wheat [7, 15]: 70
Plant response rating, Corn [8, 12]: 60
Corn plant response rating [8, 13]: 80
Plant response rating, Corn [8, 14]: 70
Plant response rating, Corn [8, 15]: 80
Plant response rating, Foxtail, Giant [9, 16]: 45
Plant response rating, Foxtail, Giant [9, 17]: 80
Plant response rating, Foxtail, Giant [9, 18]: 90
Plant response rating, Foxtail, Giant [9, 19]: 95
Plant response rating, Foxtail, Giant [9, 20]: 100
Plant response rating, Foxtail, Giant [9, 21]: 100
Plant response rating, Foxtail, Giant [9, 22]: 100
Plant response rating, Foxtail, Giant [9, 23]: 100
Plant response rating, Soybean [10, 16]: 55
Plant response rating, Soybean [10, 17]: 70
Plant response rating, Soybean [10, 18]: 70
Plant response rating, Soybean [10, 19]: 85
Plant response rating, Soybean [10, 20]: 20
Plant response rating, Soybean [10, 21]: 20
Plant response rating, Soybean [10, 22]: 35
Plant response rating, Soybean [10, 23]: 35
Plant response rating, Wheat [11, 16]: 10
Plant response rating, Wheat [11, 17]: 30
Plant response rating, Wheat [11, 18]: 30
Plant response rating, Wheat [11, 19]: 30
Plant response rating, Wheat [11, 21]: 35
Plant response rating, Wheat [11, 22]: 60
Plant response rating, Wheat [11, 23]: 60

Cc1nn(-c2ccc(C(F)(F)F)c(F)c2)nc1Cc1ccnc(C(F)(F)F)c1 [Compound 162]
Plant response rating, Pigweed [1, 12]: 100
Pigweed plant response rating [1, 13]: 100
Plant response rating, Pigweed [1, 14]: 100
Plant response rating, Pigweed [1, 15]: 100
Plant response rating, Crabgrass, Large [2, 12]: 90
Crabgrass, Large plant response rating [2, 13]: 90
Plant response rating, Crabgrass, Large [2, 14]: 100
Plant response rating, Crabgrass, Large [2, 15]: 100
Plant response rating, Ryegrass, Italian [3, 16]: 30
Plant response rating, Ryegrass, Italian [3, 17]: 35
Plant response rating, Ryegrass, Italian [3, 18]: 60
Plant response rating, Ryegrass, Italian [3, 19]: 80
Plant response rating, Ryegrass, Italian [3, 20]: 60
Plant response rating, Ryegrass, Italian [3, 21]: 80
Plant response rating, Ryegrass, Italian [3, 22]: 90
Plant response rating, Ryegrass, Italian [3, 23]: 95
Plant response rating, Lambsquarters [4, 16]: 95
Plant response rating, Lambsquarters [4, 17]: 95
Plant response rating, Lambsquarters [4, 18]: 98
Plant response rating, Lambsquarters [4, 19]: 98
Plant response rating, Barnyardgrass [5, 12]: 80
Barnyardgrass plant response rating [5, 13]: 90
Plant response rating, Barnyardgrass [5, 14]: 90
Plant response rating, Barnyardgrass [5, 15]: 100
Plant response rating, Nutsedge, Yellow [6, 16]: 5
Plant response rating, Nutsedge, Yellow [6, 17]: 5
Plant response rating, Nutsedge, Yellow [6, 18]: 5
Plant response rating, Nutsedge, Yellow [6, 19]: 10
Plant response rating, Nutsedge, Yellow [6, 20]: 0
Plant response rating, Nutsedge, Yellow [6, 21]: 0
Plant response rating, Nutsedge, Yellow [6, 22]: 5
Plant response rating, Nutsedge, Yellow [6, 23]: 5
Plant response rating, Wheat [7, 12]: 20
Wheat plant response rating [7, 13]: 30
Plant response rating, Wheat [7, 14]: 10
Plant response rating, Wheat [7, 15]: 30
Plant response rating, Corn [8, 12]: 20
Corn plant response rating [8, 13]: 40
Plant response rating, Corn [8, 14]: 20
Plant response rating, Corn [8, 15]: 30
Plant response rating, Foxtail, Giant [9, 16]: 45
Plant response rating, Foxtail, Giant [9, 17]: 55
Plant response rating, Foxtail, Giant [9, 18]: 65
Plant response rating, Foxtail, Giant [9, 19]: 98
Plant response rating, Foxtail, Giant [9, 20]: 98
Plant response rating, Foxtail, Giant [9, 21]: 100
Plant response rating, Foxtail, Giant [9, 22]: 100
Plant response rating, Foxtail, Giant [9, 23]: 100
Plant response rating, Soybean [10, 16]: 70
Plant response rating, Soybean [10, 17]: 70
Plant response rating, Soybean [10, 18]: 75
Plant response rating, Soybean [10, 19]: 95
Plant response rating, Soybean [10, 20]: 15
Plant response rating, Soybean [10, 21]: 15
Plant response rating, Soybean [10, 23]: 25
Plant response rating, Wheat [11, 16]: 20
Plant response rating, Wheat [11, 17]: 20
Plant response rating, Wheat [11, 18]: 25
Plant response rating, Wheat [11, 19]: 25
Plant response rating, Wheat [11, 21]: 5
Plant response rating, Wheat [11, 22]: 20
Plant response rating, Wheat [11, 23]: 35

CCc1nn(-c2ccc(F)cc2)nc1Oc1ccnc(C(F)(F)F)c1 [Compound 166]
Plant response rating, Pigweed [1, 12]: 100
Pigweed plant response rating [1, 24]: 100
Plant response rating, Pigweed [1, 14]: 100
Plant response rating, Pigweed [1, 15]: 100
Plant response rating, Crabgrass, Large [2, 12]: 90
Crabgrass, Large plant response rating [2, 24]: 90
Plant response rating, Crabgrass, Large [2, 14]: 100
Plant response rating, Crabgrass, Large [2, 15]: 100
Plant response rating, Ryegrass, Italian [3, 16]: 5
Plant response rating, Ryegrass, Italian [3, 17]: 5
Plant response rating, Ryegrass, Italian [3, 18]: 20
Plant response rating, Ryegrass, Italian [3, 19]: 25
Plant response rating, Ryegrass, Italian [3, 25]: 5
Plant response rating, Ryegrass, Italian [3, 21]: 40
Plant response rating, Ryegrass, Italian [3, 22]: 50
Plant response rating, Ryegrass, Italian [3, 23]: 100
Plant response rating, Lambsquarters [4, 16]: 60
Plant response rating, Lambsquarters [4, 17]: 95
Plant response rating, Lambsquarters [4, 18]: 95
Plant response rating, Lambsquarters [4, 19]: 98
Plant response rating, Barnyardgrass [5, 12]: 70
Barnyardgrass plant response rating [5, 24]: 90
Plant response rating, Barnyardgrass [5, 14]: 90
Plant response rating, Barnyardgrass [5, 15]: 100
Plant response rating, Nutsedge, Yellow [6, 16]: 0
Plant response rating, Nutsedge, Yellow [6, 17]: 5
Plant response rating, Nutsedge, Yellow [6, 18]: 5
Plant response rating, Nutsedge, Yellow [6, 19]: 10
Plant response rating, Nutsedge, Yellow [6, 25]: 0
Plant response rating, Nutsedge, Yellow [6, 21]: 0
Plant response rating, Nutsedge, Yellow [6, 22]: 5
Plant response rating, Nutsedge, Yellow [6, 23]: 15
Plant response rating, Wheat [7, 12]: 30
Wheat plant response rating [7, 24]: 40
Plant response rating, Wheat [7, 14]: 10
Plant response rating, Wheat [7, 15]: 50
Plant response rating, Corn [8, 12]: 20
Corn plant response rating [8, 24]: 30
Plant response rating, Corn [8, 14]: 10
Plant response rating, Corn [8, 15]: 30
Plant response rating, Foxtail, Giant [9, 16]: 20
Plant response rating, Foxtail, Giant [9, 17]: 40
Plant response rating, Foxtail, Giant [9, 18]: 40
Plant response rating, Foxtail, Giant [9, 19]: 40
Plant response rating, Foxtail, Giant [9, 25]: 100
Plant response rating, Foxtail, Giant [9, 21]: 100
Plant response rating, Foxtail, Giant [9, 22]: 100
Plant response rating, Foxtail, Giant [9, 23]: 100
Plant response rating, Soybean [10, 16]: 35
Plant response rating, Soybean [10, 17]: 35
Plant response rating, Soybean [10, 18]: 35
Plant response rating, Soybean [10, 19]: 35
Plant response rating, Soybean [10, 25]: 5
Plant response rating, Soybean [10, 21]: 5
Plant response rating, Soybean [10, 22]: 20
Plant response rating, Soybean [10, 23]: 35
Plant response rating, Wheat [11, 16]: 5
Plant response rating, Wheat [11, 17]: 5
Plant response rating, Wheat [11, 18]: 5
Plant response rating, Wheat [11, 19]: 10
Plant response rating, Wheat [11, 25]: 0
Plant response rating, Wheat [11, 21]: 0
Plant response rating, Wheat [11, 22]: 5
Plant response rating, Wheat [11, 23]: 15
